Data reported in patent US9732044B2, “N-(pyrid-4-yl)amides and N-(pyrimidin-4-yl)amides and their pharmaceutical and cosmetic use” (GALDERMA RESEARCH & DEVELOPMENT, priority 2011, dated 2017).
Like-named read-outs stand apart in the source and are kept apart here.

Tests used:
[1] = molecular target: androgen receptor (AR) (Homo sapiens (Human), UniProt P10275); assay: Androgen receptor transactivation test in PALM cell line (cross curves against methyl trienolone); assay type: cell-based
Experimental: This AR inhibiting activity was measured in a transactivation test by the dissociation constants KdR (rest), KdA (active), and Kdapp (apparent).
A compound may be said to be an AR inhibitor if it has a dissociation constant, Kdapp, of less than or equal to 1 μM, and a KdR/KdA ratio of less than or equal to 10 in a transactivation test.
The transactivation test is carried out in the cell line PALM (PC3 androgen receptor Luciferase MMTV), which is a stable transfectant containing the plasmids PMMTV-neo-Luc (reporter gene) and pSG5puro-AR.
In this study, the affinity of each test compound for the 2 states of the receptor (KdR and KdA) is determined together with the apparent Kd (KdApp). This constant depends upon the 2 Kd's (KdR and KdA), but also depends on the initial equilibrium of the receptor between the active state and rest state (L0) and on its expression rate. It is determined by the following formula: 1/KdApp=(L0/(1+L0))×(1/KdR)+(1/(1+L0))×(1/KdA)
In order to determine these constants, “cross curves” of the test compound against a reference agonist, methyl trienolone, are carried out on a 96-well plate. The test compound is used in 10 concentrations and the reference agonist in 7 concentrations.

[2] = system: sebaceous gland of the ear of a Syrian hamster; assay: In vivo animal model with reduction in the size of the sebaceous glands (Syrian hamster ear); details: 1 g %/mL solution, topical on ear, daily for 24 days, compared to control (absolute ethanol)
Excerpt: The model of the sebaceous gland of the ear of a Syrian hamster described by Plewig and Luderschmidt in J. Inv. Derm., (1977), pp. 171-176 is a classical tool for the in vivo study of the function of the sebaceous gland. In fact, the inner faces of the ear lobes of the hamster contain a high number of sebaceous glands described as being similar to those of human sebaceous follicles in terms of certain characteristics, including their morphology and response to androgens and anti-androgens. In fact the growth and lipogenesis of the sebaceous glands on the inner face of the ear of Syrian hamsters depend on the androgens. The anti-androgenic activity of test compounds can be easily evaluated by measuring the size of the sebaceous glands. Moreover, this model has been selected to evaluate the efficacy of the antagonists of the receptor to the androgens on the sebaceous gland.
Test compounds were evaluated according to the following protocol: male hamsters aged weeks were treated daily for 24 days on the inner face of the right ear with 30 μL of a solution of the test compound to be evaluated in absolute ethanol. For each test compound, groups were treated with solutions at a range of concentrations (e.g., from 0.01 g %/mL to 3 g %/mL), as well as absolute ethanol used as a control. (A concentration of 3 g %/mL means a concentration of 0.03 g/mL.)
At the end of the study, samples were taken from the treated ears. The skin of the inner face of the ear was separated from the cartilage. Under a binocular magnifying glass, two zones of 4 mm^2 were numbered. The size of the sebaceous glands was measured on the numerical images by manually trimming the glands by means of image analysis software (TINA.20). For each image some twenty glands were measured. The average area of the sebaceous glands was calculated for each treatment group.
A Student t-test for independent groups comparing each dose with vehicle was carried out to compare the average size of the sebaceous glands as a function of the doses applied. When the evolution of the effect is represented graphically as a function of the administered dose of test compound, the curve obtained is sigmoid in shape. In the median part, this sigmoid may be likened to a straight line. The dose corresponding to 50% of the maximum effect corresponds graphically to the point located in the centre of the linear section defined as “effective dose 50”. This DE50 characterises the potency of the test compound.

[3] = threshold lists, PALM cells, read-out: Kdapp
[4] = apparent dissociation constant, PALM cells (PC3 androgen receptor Luciferase MMTV), read-out: Kdapp
[5] = Kdapp, threshold lists, PALM cells

Sequence of androgen receptor (AR) (P10275 whole entry): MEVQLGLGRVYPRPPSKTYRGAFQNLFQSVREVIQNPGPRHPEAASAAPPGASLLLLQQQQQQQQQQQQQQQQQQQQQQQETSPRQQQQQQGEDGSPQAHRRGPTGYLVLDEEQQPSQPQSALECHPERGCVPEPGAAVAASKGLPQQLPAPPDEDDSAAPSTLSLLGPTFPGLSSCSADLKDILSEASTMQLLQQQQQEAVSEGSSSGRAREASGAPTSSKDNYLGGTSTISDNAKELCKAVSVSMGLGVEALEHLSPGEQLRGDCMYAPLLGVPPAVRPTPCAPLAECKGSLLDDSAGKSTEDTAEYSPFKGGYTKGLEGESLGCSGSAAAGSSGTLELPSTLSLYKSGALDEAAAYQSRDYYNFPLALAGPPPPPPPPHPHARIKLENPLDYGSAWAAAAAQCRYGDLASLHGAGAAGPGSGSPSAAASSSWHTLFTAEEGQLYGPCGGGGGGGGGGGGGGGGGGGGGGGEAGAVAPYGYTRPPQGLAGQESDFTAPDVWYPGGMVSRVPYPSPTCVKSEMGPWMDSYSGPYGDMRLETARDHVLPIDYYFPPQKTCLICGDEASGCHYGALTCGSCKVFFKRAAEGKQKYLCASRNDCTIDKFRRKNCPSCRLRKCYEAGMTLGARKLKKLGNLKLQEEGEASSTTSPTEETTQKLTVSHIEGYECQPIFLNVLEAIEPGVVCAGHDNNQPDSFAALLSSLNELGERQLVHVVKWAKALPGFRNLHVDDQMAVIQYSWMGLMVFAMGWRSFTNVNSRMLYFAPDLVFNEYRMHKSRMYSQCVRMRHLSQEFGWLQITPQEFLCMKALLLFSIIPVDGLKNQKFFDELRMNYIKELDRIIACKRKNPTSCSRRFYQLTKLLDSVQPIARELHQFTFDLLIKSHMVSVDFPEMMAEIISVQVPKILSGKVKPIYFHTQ

Kd [1, 3]	Kd [1, 4]	SMILES	Reduction of sebaceous glands (following treatment at 1 g %/mL) [2]	Kd [1, 5]
≤ 30 nM		CCC(O)(C(=O)Nc1ccnc(Br)c1)C1CCCC1 (centres unmarked) [Compound 77B, N-(2-Bromo-pyridin-4-yl)-2-cyclopentyl-2-hydroxy-butyramide]		
≤ 30 nM		CCC(O)(C(=O)Nc1cc(Br)nc(OC)c1)C1CCCC1 (centres unmarked) [Compound 73A, N-(2-Bromo-6-methoxy-pyridin-4-yl)-2-cyclopentyl-2-hydroxy-butyramide]		
≤ 30 nM		CCC(O)(C(=O)Nc1cc(Br)nc(OC)c1)C(C)C (centres unmarked) [Compound 74B, N-(2-Bromo-6-methoxy-pyridin-4-yl)-2-ethyl-2-hydroxy-3-methyl-butyramide]	61%	
≤ 100 nM		CCCCC(C)(O)C(=O)Nc1ccnc(Br)c1 (single isomer, unassigned) [Compound 80A, 2-Hydroxy-2-methyl-hexanoic acid (2-bromo-pyridin-4-yl)-amide]	51%	
≤ 300 nM		CCCCC(C)(O)C(=O)Nc1ccnc(Br)c1 (single isomer, unassigned) [Compound 80B, 2-Hydroxy-2-methyl-hexanoic acid (2-bromo-pyridin-4-yl)-amide]		
≤ 30 nM		COc1cc(NC(=O)C(C)(O)CC(C)C)cc(Br)n1 (single isomer, unassigned) [Compound 71A]		
≤ 100 nM		CCCC(O)(CC)C(=O)Nc1cc(Br)nc(OC)c1 (centres unmarked) [Compound 75A, 2-Ethyl-2-hydroxy-pentanoic acid (2-bromo-6-methoxy-pyridin-4-yl)-amide]		
≤ 30 nM		COc1cc(NC(=O)C(C)(O)C(C)C)cc(Br)n1 (centres unmarked) [Compound 76A, N-(2-Bromo-6-methoxy-pyridin-4-yl)-2-hydroxy-2,3-dimethyl-butyramide]	58%	
≤ 30 nM		CCC(O)(C(=O)Nc1cc(Br)nc(OC)c1)C(C)C (centres unmarked) [Compound 74A, N-(2-Bromo-6-methoxy-pyridin-4-yl)-2-ethyl-2-hydroxy-3-methyl-butyramide]		
≤ 1000 nM		COc1cc(NC(=O)C(C)(O)C2CCOCC2)cc(Br)n1 (centres unmarked) [Compound 69, N-(2-Bromo-6-methoxy-pyridin-4-yl)-2-hydroxy-2-(tetrahydro-pyran-4-yl)-propionamide]		
≤ 100 nM		CCC(O)(C(=O)Nc1cc(Br)nc(OC)c1)C1CCCC1 (centres unmarked) [Compound 73B, N-(2-Bromo-6-methoxy-pyridin-4-yl)-2-cyclopentyl-2-hydroxy-butyramide]		
≤ 100 nM		CCCC(O)(CC)C(=O)Nc1cc(Br)nc(OC)c1 (centres unmarked) [Compound 75B, 2-Ethyl-2-hydroxy-pentanoic acid (2-bromo-6-methoxy-pyridin-4-yl)-amide]		
≤ 100 nM		CCCCC(O)(CCCC)C(=O)Nc1cc(Br)nc(OC)c1 [Compound 66, 2-Butyl-2-hydroxy-hexanoic acid (2-bromo-6-methoxy-pyridin-4-yl)-amide]		
≤ 30 nM		CCC(O)(C(=O)Nc1ccnc(Br)c1)C1CCCC1 (centres unmarked) [Compound 77A, N-(2-Bromo-pyridin-4-yl)-2-cyclopentyl-2-hydroxy-butyramide]		
≤ 30 nM		CCCC(O)(C(=O)Nc1cc(Br)nc(OC)c1)C(C)C (centres unmarked) [Compound 79B, 2-Hydroxy-2-isopropyl-pentanoic acid (2-bromo-6-methoxy-pyridin-4-yl)-amide]		
≤ 100 nM		COc1cc(NC(=O)C(C)(O)C(C)C)cc(Br)n1 (centres unmarked) [Compound 76B, N-(2-Bromo-6-methoxy-pyridin-4-yl)-2-hydroxy-2,3-dimethyl-butyramide]		

Further lines, the compound ahead of its results:

SMILES	Kd [1, 3]	Kd [1, 4]	Reduction of sebaceous glands (following treatment at 1 g %/mL) [2]	Kd [1, 5]
CC(O)(C(=O)Nc1ccnc(Br)c1)c1ccccc1 (centres unmarked) [Compound 32, N-(2-Bromo-pyridin-4-yl)-2-hydroxy-2-phenyl-propionamide]	≤ 100 nM	100 nM		
COc1cc(NC(=O)C(C)(O)c2ccc(F)cc2)ccn1 (centres unmarked) [Compound 27, 2-(4-Fluoro-phenyl)-2-hydroxy-N-(2-methoxy-pyridin-4-yl)-propionamide]	≤ 300 nM			
CCCC(C)(O)C(=O)Nc1cc(Br)nc(OC)c1 (centres unmarked) [Compound 60, 2-Hydroxy-2-methyl-pentanoic acid (2-bromo-6-methoxy-pyridin-4-yl)-amide]	≤ 100 nM			
CCCC(C)(O)C(=O)Nc1ccnc(Br)c1 (centres unmarked) [Compound 1, 2-Hydroxy-2-methyl-pentanoic acid (2-bromo-pyridin-4-yl)-amide]	≤ 100 nM	75 nM	53%	
CC(O)(CCc1ccccc1)C(=O)Nc1ccnc(Br)c1 (centres unmarked) [Compound 43, N-(2-Bromo-pyridin-4-yl)-2-hydroxy-2-methyl-4-phenyl-butyramide]		100 nM	44%	≤ 100 nM
CCCC(C)(O)C(=O)Nc1ccnc(C(=O)OC)c1 (centres unmarked) [Compound 59, 4-(2-Hydroxy-2-methyl-pentanoylamino)-pyridine-2-carboxylic acid methyl ester]	≤ 10000 nM	6000 nM		
COc1cc(NC(=O)C(C)(O)C(C)C)cc(Br)n1 (centres unmarked) [Compound 25, N-(2-Bromo-6-methoxy-pyridin-4-yl)-2-hydroxy-2,3-dimethyl-butyramide]	≤ 30 nM			
CCC(O)(C(=O)Nc1cc(Br)nc(OC)c1)C(C)C (centres unmarked) [Compound 13, N-(2-Bromo-6-methoxy-pyridin-4-yl)-2-ethyl-2-hydroxy-3-methyl-butyramide]	≤ 30 nM			
COc1cc(NC(=O)C(C)(O)CC(C)C)cc(Br)n1 (racemic) [Compound 41, 2-Hydroxy-2,4-dimethyl-pentanoic acid (2-bromo-6-methoxy-pyridin-4-yl)-amide]	≤ 30 nM	20 nM	61%	
COc1ccc(CCC(C)(O)C(=O)Nc2ccnc(Br)c2)cc1 (centres unmarked) [Compound 24, N-(2-Bromo-pyridin-4-yl)-2-hydroxy-4-(4-methoxy-phenyl)-2-methyl-butyramide]	≤ 300 nM	300 nM		
COc1cc(NC(=O)C(O)(C(C)C)C(C)C)cc(Br)n1 [Compound 68, N-(2-Bromo-6-methoxy-pyridin-4-yl)-2-hydroxy-2-isopropyl-3-methyl-butyramide]			57%	≤ 30 nM
CCCC(C)(O)C(=O)Nc1cc(Br)nc(OC)c1 (centres unmarked) [Compound 78A, 2-Hydroxy-2-methyl-pentanoic acid (2-bromo-6-methoxy-pyridin-4-yl)-amide]	≤ 100 nM			
CCCCC(O)(CCCC)C(=O)Nc1ccnc(Br)c1 [Compound 23, 2-Butyl-2-hydroxy-hexanoic acid (2-bromo-pyridin-4-yl)-amide]	≤ 30 nM	15 nM	51%	
COc1cc(NC(=O)C(C)(C)O)cc(Br)n1 [Compound 38, N-(2-Bromo-6-methoxy-pyridin-4-yl)-2-hydroxy-2-methyl-propionamide]	≤ 300 nM			
CCCCC(C)(O)C(=O)Nc1cc(Br)nc(OC)c1 (centres unmarked) [Compound 72B, 2-Hydroxy-2-methyl-hexanoic acid (2-bromo-6-methoxy-pyridin-4-yl)-amide]	≤ 100 nM		46%	
CCCC(O)(C(=O)Nc1cc(Br)nc(OC)c1)C(C)C (centres unmarked) [Compound 64, 2-Hydroxy-2-isopropyl-pentanoic acid (2-bromo-6-methoxy-pyridin-4-yl)-amide]	≤ 30 nM			
CCC(O)(C(=O)Nc1ccnc(Br)c1)C1CCCC1 (centres unmarked) [Compound 51, N-(2-Bromo-pyridin-4-yl)-2-cyclopentyl-2-hydroxy-butyramide]	≤ 30 nM			
CCC(O)(C(=O)Nc1cc(Br)nc(OC)c1)C1CCCC1 (centres unmarked) [Compound 9, N-(2-Bromo-6-methoxy-pyridin-4-yl)-2-cyclopentyl-2-hydroxy-butyramide]	≤ 30 nM			
